The subject of series [1] is dyslipidemic patients with statin. Description: Example 4 pooled analysis: lipoprotein subclasses by HPLC, with statin, by eGFR. Format: in vivo, human. Conditions: for Small HDL-C % Change from baseline to week 12 / Small LDL-C % Change from baseline to week 12 / Very small HDL-C % Change from baseline to week 12 / Very small LDL-C % Change from baseline to week 12: LS mean. As to the method: The present study analyzed data combined from 6 randomized double-blind placebo-controlled studies that were conducted in Japan and continued for 12 weeks unless otherwise noted: a phase 2 study in 224 patients with a history of documented dyslipidemia and plasma TG of 200 mg/dL (2.26 mmol/L) or higher, randomized to placebo, pemafibrate 0.05, 0.1, 0.2, 0.4 mg/day, or fenofibrate 100 mg/day; a phase 3 study in 526 patients with dyslipidemia, high TG levels, and low HDL-C levels, randomized to placebo, pemafibrate 0.1, 0.2, or 0.4 mg/day, or fenofibrate 100 or 200 mg/day; a study in 188 patients with dyslipidemia, randomized to pitavastatin in combination with pemafibrate 0.1, 0.2, or 0.4 mg/day; a 24-week study in 423 patients with dyslipidemia, randomized to pemafibrate 0.2 mg/day (fixed dose) or 0.2 [0.4] mg/day (conditional up-titration) with any statin; a 24-week phase 3 study in 166 patients with type 2 diabetes and hypertriglyceridemia, randomized to placebo or pemafibrate 0.2 or 0.4 mg/day; and a study in 27 patients with hypertriglyceridemia and insulin resistance, randomized to pemafibrate 0.4 mg/day or placebo. All studies were approved by the Institutional Review Board for each study institution and were conducted in accordance with the Declaration of Helsinki and under the guidelines of Good Clinical Practice.
In this study, we evaluated the efficacy and safety of pemafibrate at doses of 0.1 mg/day, 0.2 mg/day, and 0.4 mg/day, with and without statin. The primary efficacy endpoint was percent change in TG from baseline to 12 weeks. The secondary efficacy endpoints were also assessed from baseline to 12 weeks: percent change in HDL-C, LDL-C, non-HDL-C, TC, RemL-C, Apo AI, Apo AII, Apo B, Apo B48, Apo CII, Apo CIII, Apo CIII/Apo CII, and Apo E; percent change in HPLC findings for CM-C, VLDL-C, cholesterol content in 4 subclasses of LDL (large, medium, small, and very small LDLs), and cholesterol content for 5 subclasses of HDL (very large, large, medium, small, and very small HDLs); and changes in fibrinogen and FGF21. The primary safety endpoints were the incidence of adverse events and adverse drug reactions. Secondary safety endpoints were percentage of values above the upper limit of normal range for AST, ALT, sCr and CK, and change in sCr eGFR, CK, AST, ALT, gamma-glutamyl transferase (γ-GT), alkaline phosphatase (ALP), and total bilirubin.
Patients with renal dysfunction were defined as those with baseline eGFR<60 mL/min/1.73 m^2. Analysis was stratified by the presence or absence of renal dysfunction in the concomitant statin group, and efficacy and safety of pemafibrate were evaluated. In efficacy and safety evaluations excluding AEs, ADRs, and cutoff values for AST, ALT, sCr, and CK, findings were combined for pemafibrate subgroups receiving doses of 0.1 mg/day, 0.2 mg/day, and 0.4 mg/day.
For each lipid parameter, gel filtration HPLC was performed at Skylight Biotech, Inc. Other measurements were performed at LSI Medience Corporation. The FAS was used for analyzing efficacy parameters of effects on lipids, fibrinogen, and FGF21. The safety analysis set was used for safety parameters and included all patients who received at least one dose of the study drug. For lipid parameters, fibrinogen, and FGF21, LS means (95% confidence interval) were calculated at Week 12 (LOCF) using analysis of covariance (ANCOVA) with baseline values as the co-variable within each category. For safety parameters, LS means (95% confidence interval) were calculated at Week 12 using ANCOVA with baseline values as the co-variable within each category. SAS version 9.2 was used for analyses.

In series [2] the test system is apolipoprotein (Apo) A1 transgenic mice. Put plainly: TG decrease and HDL-C increase in Apo A1 transgenic mice. Format: in vivo. Conditions: versus fenofibrate.
A short description of series [3]: Study K-877-12, pharmacokinetics in patients with renal impairment. It is filed as in vivo, human. Conditions: Japanese patients with renal impairment, even severe.
Series [4] concerns dyslipidemic patients with renal impairment. Description: Example 3 phase III 52-week trial: adverse events and adverse drug reactions. It is filed as in vivo, human. The procedure:
This was a multicenter, single-arm, open-label, phase III trial. The inclusion criteria were as follows: (1) patients with dyslipidemia aged >20 years at the time of informed consent; (2) men and postmenopausal women; (3) fasting serum TG≥1.70 mmol/L (150 mg/dL) at two consecutive measurements during screening; and (4) patients who followed dietary and physical exercise guidance for >12 weeks before enrollment.
During the screening period (8 weeks prior to treatment initiation), tests were performed twice to determine patient eligibility. Thereafter, eligible patients orally received pemafibrate 0.2 mg/day (twice daily) for 52 weeks. From week 12 of the treatment period onwards, the investigators were instructed that the dose could be increased from 0.2 mg/day to 0.4 mg/day (twice daily) if there was an inadequate response to the initial dose based on fasting serum TG levels ≥1.70 mmol/L (150 mg/dL). Fasting blood and urine samples were collected at each visit. Blood and urine sample in patients with hemodialysis were collected just before dialysis. LDL-C levels were measured using the direct method. Lipoprotein fractions were measured by HPLC at baseline and weeks 12 and 40.
The primary efficacy endpoint was the percent change in fasting serum TG from baseline to the last evaluation point. The primary safety endpoints were the incidence of an AE or ADR occurring after drug administration during the study. Secondary efficacy endpoints included percent changes in lipid variables and changes in inflammation variables at week 52 [using the last-observation-carried-forward (LOCF)]. Secondary safety endpoints included changes in the levels of aspartate aminotransferase (AST), ALT, -GT, ALP, serum creatinine, eGFR, and CK at week 52. […]
The numbers of patients with AEs and ADRs and the incidences of AEs and ADRs were calculated in the analysis of primary safety endpoints. […] The secondary safety endpoints were analyzed with Wilcoxon signed-rank tests. […] Where indicated, the data are expressed as means±standard deviation (SD).

Setting [5] is: Baseline eGFR < 60 mL/min/1.73 m^2, 0.1-0.4 mg/day.
[6] abbreviates: Baseline eGFR ≥ 60 mL/min/1.73 m^2, 0.1-0.4 mg/day.

For the compound `CC[C@@H](Oc1cccc(CN(CCCOc2ccc(OC)cc2)c2nc3ccccc3o2)c1)C(=O)O` [Pemafibrate, (2R)-2-[3-({1,3-benzoxazol-2-yl[3-(4-methoxyphenoxy)propyl]amino}methyl)phenoxy]butanoic acid], in series [1] (setting [5]), the “Small HDL-C Week 12 (LOCF)” value is on record as 0.484 mmol/L, the “Small LDL-C Week 12 (LOCF)” value is recorded as 0.577 mmol/L, the “Very small HDL-C Week 12 (LOCF)” value is recorded as 0.208 mmol/L and the “Very small LDL-C Week 12 (LOCF)” value is on record as 0.229 mmol/L. For the same compound, in series [1] (setting [5]), the “Small HDL-C % Change from baseline to week 12” value is reported as 34.9%, the “Small LDL-C % Change from baseline to week 12” value is on record as −7.8%, the “Very small HDL-C % Change from baseline to week 12” value is recorded as 25.2% and the “Very small LDL-C % Change from baseline to week 12” value is reported as −14.6%. In addition, in series [1] (setting [6]), the “Small HDL-C Week 12 (LOCF)” value is listed as 0.470 mmol/L, the “Small LDL-C Week 12 (LOCF)” value is listed as 0.576 mmol/L, the “Very small HDL-C Week 12 (LOCF)” value is on record as 0.204 mmol/L and the “Very small LDL-C Week 12 (LOCF)” value amounted to 0.231 mmol/L. Further, in series [1] (setting [6]), the “Small HDL-C % Change from baseline to week 12” value turned out to be 26.7%, the “Small LDL-C % Change from baseline to week 12” value is −6.0%, the “Very small HDL-C % Change from baseline to week 12” value came out at 19.4% and the “Very small LDL-C % Change from baseline to week 12” value is reported as −12.5%. Further, the “small and very small LDL-C and HDL particle sizes (observation)” value in series [1] (lower eGFR group) was “improvements”. Also, the “potency in decreasing TG and increasing HDL-C” value in series [2] is on record as “more potent than fenofibrate”. The “differences in pharmacokinetics (PK) with renal impairment” value in series [3] was “no meaningful differences”. In addition, in series [4] (0.2 (0.4) mg/day, 52 weeks), the “incidence of adverse drug reactions” value was 31.7% and the “incidence of adverse events” value is 82.0%. The “association of adverse event and adverse drug reaction incidences with baseline eGFR” value in series [4] (in vivo) is given as “not associated”.
